Measured values published in patent US12440567B2, “Aqueous antibody formulation stabilized by antioxidants for parenteral administration” (AMGEN INC., priority 2007, dated 2025).

Tests used:
Antibody A = test: Discoloration (yellowing) of Antibody A formulations after UV-B exposure; type: physicochemical; settings: UV-B light 24 hours
Text: Discoloration can be assessed visually or by measurement of absorbance at a specific wavelength.
Proteins may also become yellow in color following exposure to UV light.
Pyridoxine is another water soluble B-vitamin (B6) which was studied as a possible antioxidant for preventing protein aggregation caused by UV-B exposure.

EPO = test: SEC-HPLC aggregation/degradation of EPO after UV-B exposure; type: physicochemical, human; settings: pH 6.90, 302 nm UV-B 24 hours
Protocol: For the examples below involving exposure to UVB radiation, each sample was exposed to UVB light (λ≈302 nm) for varying times, using a UVP 8W model UVLMS-38 lamp at 4° C. The formulations were then analyzed using size exclusion chromatography high pressure liquid chromatography (SEC-HPLC). Aggregation (measured via SEC-HPLC analysis) and binding (measured using CM5 gold sensor chips) were measured to determine the effect of the antioxidant on aggregation and bioactivity of the therapeutic protein. The SEC-HPLC conditions were as follows: a G3000 TOSOH SWXL column was used and the flowrate was set at 0.5 mL/min. […] FIG. 4 (EPO), FIG. 5 (anti-streptavidin), and FIG. 6 (Antibody A) show SEC-HPLC chromatograms of each proteins following exposure to 302 nm UV-B light for 24 hours. […] Each formulation was then exposed to 302 nm UV-B light for 24 hours. The protein formulation was then analyzed using SEC-HPLC.

EPO binding to D11 = test: Binding of EPO to D11 monoclonal antibody after UV-B exposure of the formulation; design: species or system human
Protocol: For the examples below involving exposure to UVB radiation, each sample was exposed to UVB light (λ≈302 nm) for varying times, using a UVP 8W model UVLMS-38 lamp at 4° C. The formulations were then analyzed using size exclusion chromatography high pressure liquid chromatography (SEC-HPLC). Aggregation (measured via SEC-HPLC analysis) and binding (measured using CM5 gold sensor chips) were measured to determine the effect of the antioxidant on aggregation and bioactivity of the therapeutic protein. The binding activity of therapeutic protein to a ligand (e.g. to an antibody or binding partner, or, in cases where the therapeutic was an antibody, binding activity to the specific target antigen or to protein A) was determined as follows. […] The therapeutic protein-binding ligand of interest was injected until the desired immobilization level was achieved (above 5000 response units). Three different therapeutic protein-binding ligands were measured—Antibody A's target antigen, Protein A, and D11 (an antibody that binds to erythropoietin). […] The remaining activated groups were blocked with 1.0 M ethanolamine-HCl, pH 8.5. A standard curve was prepared by using native forms of the therapeutic protein of interest. Native forms of the therapeutic protein were diluted in HBS-EP buffer (pH 7.4) to concentrations between 1 and 5 μg/mL, and then injected on the column, prepared as described above to obtain a standard curve. At the end of each sample run, regeneration buffer was used to wash away any bound therapeutic protein in preparation for subsequent injections. Various UV-stressed antibody formulations were also diluted in HBS-EP buffer (pH 7.4) to a concentration within the standard curve region, and injected to quantitate the loss of bioactivity to its respective ligand-binding partner. […] The protein was exposed to the same conditions as Antibody A and Antibody B for up to 24 hours.

[1] = test system: anti-streptavidin mAb (IgG2); test: SEC-HPLC aggregation of anti-streptavidin (IgG2) after UV-B exposure; type: physicochemical; settings: 20 mM antioxidant; 1 mg/mL anti-streptavidin, 10 mM sodium acetate, 5% sorbitol, pH 5.00; 302 nm UV-B 24 hours
Protocol: The SEC-HPLC conditions were as follows: a G3000 TOSOH SWXL column was used and the flowrate was set at 0.5 mL/min. […] For both IgG1 and IgG2, the mobile phase was 80 mM sodium phosphate, 300 mM sodium perchlorate, 10% isopropanol, pH 7.2, and each sample was run for 45 minutes.
For FIG. 5, the anti-streptavidin formulation was prepared having the following characteristics: 1 mg/mL anti-streptavidin mAb (IgG2), 10 mM sodium acetate, 5% sorbitol, and pH 5.00. For FIG. 6, the Antibody A formulation was prepared having the following characteristics: 1 mg/mL Antibody A (IgG1), 10 mM sodium acetate, 9% sucrose, and pH 5.20.

[2] = test system: Antibody A binding to protein A; test: Binding of Antibody A to protein A (CM5 sensor chip) after UV-B exposure of the formulation; settings: 20 mM antioxidant; pH 5.20 acetate buffer; 302 nm UV light over 24 hours
Protocol: For the examples below involving exposure to UVB radiation, each sample was exposed to UVB light (λ≈302 nm) for varying times, using a UVP 8W model UVLMS-38 lamp at 4° C. The formulations were then analyzed using size exclusion chromatography high pressure liquid chromatography (SEC-HPLC). Aggregation (measured via SEC-HPLC analysis) and binding (measured using CM5 gold sensor chips) were measured to determine the effect of the antioxidant on aggregation and bioactivity of the therapeutic protein. The binding activity of therapeutic protein to a ligand (e.g. to an antibody or binding partner, or, in cases where the therapeutic was an antibody, binding activity to the specific target antigen or to protein A) was determined as follows. […] The therapeutic protein-binding ligand of interest was injected until the desired immobilization level was achieved (above 5000 response units). Three different therapeutic protein-binding ligands were measured—Antibody A's target antigen, Protein A, and D11 (an antibody that binds to erythropoietin). […] The remaining activated groups were blocked with 1.0 M ethanolamine-HCl, pH 8.5. […] Various UV-stressed antibody formulations were also diluted in HBS-EP buffer (pH 7.4) to a concentration within the standard curve region, and injected to quantitate the loss of bioactivity to its respective ligand-binding partner.

[3] = test system: anti-streptavidin (IgG2 antibody); test: Thermal aggregation of anti-streptavidin at 52° C. for 10 days; type: physicochemical; settings: 10 mM antioxidant; 50 mM sodium acetate pH 5.00; no UV
Protocol: The SEC-HPLC conditions were as follows: a G3000 TOSOH SWXL column was used and the flowrate was set at 0.5 mL/min. […] Anti-streptavidin was formulated in 50 mM sodium acetate at pH 5.00. These formulations were not exposed to UV radiation but assessed on their thermal stability.

yellowing of Antibody A formulation (Antibody A; 10 mM additive alone): no appreciable yellowing
yellowing of Antibody A formulation (Antibody A; 10 mM antioxidant in the presence of 10 mM methionine): no appreciable yellowing
amount of aggregate of EPO (SEC-HPLC) (EPO; 20 mM antioxidant, 1 mg/mL EPO, 25 mM sodium phosphate, 125 mM sodium chloride): dramatically reduced
binding of EPO to D11 mAb after UV light exposure (EPO binding to D11; 20 mM antioxidant, up to 24 hours UV): able to significantly preserve
amount of aggregate of anti-streptavidin (SEC-HPLC) [1]: dramatically reduced
binding of Antibody A to protein A after UV exposure [2]: preserved
SMILES: COc1cc(/C=C/C(=O)O)ccc1O [ferulic acid]
amount of EPO dimer and aggregate caused by UV light (SEC-HPLC) (EPO; 0.1 mM antioxidant, 0.336 mg/mL EPO, 20 mM sodium phosphate): able to reduce the amount of EPO dimer and aggregate
prevention of EPO degradation compared with 10 mM methionine (SEC-HPLC) (EPO; 0.1 mM antioxidant, 0.336 mg/mL EPO): able to prevent EPO degradation more effectively than 10 mM methionine
EPO binding activity to D11 during UV-B exposure (EPO binding to D11; 0.1 mM antioxidant, UV-B up to 24 hours): able to protect the EPO from degradation and preserve its binding activity
aggregation of anti-streptavidin after 10 days at 52° C. [3]: contributed to the aggregation of anti-streptavidin
